Data from the supplement of paper PMC5908809.

How the values were obtained:
NK-YS (IL-2 2.5 ng/mL) [1] = assay: drug sensitivity score (DSS) (DSS units); higher = more sensitive; extreme values may be limits of the assay; settings: 72 h
IMC-1 (IL-2 20 ng/mL) [2] = assay: as above; settings: 72 h
[3] = test system: normal primary NK cells, pool 3 (3 donors) (IL-2 2.5 ng/mL); assay: as above; settings: 72 h
KHYG-1 (IL-2 2.5 ng/mL) [4] = assay: as above; settings: 72 h
NK-92 (IL-2 2.5 ng/mL) [5] = assay: as above; settings: 72 h
[6] = test system: normal primary NK cells, pool 1 (3 donors) (IL-2 2.5 ng/mL); assay: as above; settings: 72 h
DERL-7 (IL-2 2.5 ng/mL) [7] = assay: as above; settings: 72 h
[8] = test system: normal primary NK cells, pool 2 (3 donors) (IL-2 2.5 ng/mL); assay: as above; settings: 72 h
SNK-6 (IL-2 2.5 ng/mL) [9] = assay: as above; settings: 72 h
[10] = test system: normal primary NK cells, pool 1 (3 donors), resting (IL-2 0 ng/mL); assay: as above; settings: 72 h
KAI3 (IL-2 2.5 ng/mL) [11] = assay: as above; settings: 72 h
NKL (IL-2 2.5 ng/mL) [12] = assay: as above; settings: 72 h
YT (IL-2 2.5 ng/mL) [13] = assay: as above; settings: 72 h
NK-YS (IL-2 2.5 ng/mL) [14] = assay: percent inhibition of viability; higher = more inhibition; settings: 72 h
IMC-1 (IL-2 20 ng/mL) [15] = assay: as above; settings: 72 h
[16] = test system: normal primary NK cells, pool 3 (3 donors) (IL-2 2.5 ng/mL); assay: as above; settings: 72 h
KHYG-1 (IL-2 2.5 ng/mL) [17] = assay: as above; settings: 72 h
NK-92 (IL-2 2.5 ng/mL) [18] = assay: as above; settings: 72 h
[19] = test system: normal primary NK cells, pool 1 (3 donors) (IL-2 2.5 ng/mL); assay: as above; settings: 72 h
DERL-7 (IL-2 2.5 ng/mL) [20] = assay: as above; settings: 72 h
[21] = test system: normal primary NK cells, pool 2 (3 donors) (IL-2 2.5 ng/mL); assay: as above; settings: 72 h
SNK-6 (IL-2 2.5 ng/mL) [22] = assay: as above; settings: 72 h
[23] = test system: normal primary NK cells, pool 1 (3 donors), resting (IL-2 0 ng/mL); assay: as above; settings: 72 h
KAI3 (IL-2 2.5 ng/mL) [24] = assay: as above; settings: 72 h
NKL (IL-2 2.5 ng/mL) [25] = assay: as above; settings: 72 h
YT (IL-2 2.5 ng/mL) [26] = assay: as above; settings: 72 h
[27] = test system: normal NK cells expanded with K562-aAPC; assay: as above; settings: 72 h, IL-2 2.5 ng/mL
Protocol: (§1)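 Drug sensitivity and resistance testing on K562-aAPC-expanded normal NK cells: 5 concentrations (10-fold steps over a 10,000-fold range), 72 h at 37 °C, viability by CellTiter-Glo normalised to DMSO and benzethonium chloride controls; DSS from the fitted curve.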

[28] = test system: normal NK cells expanded with K562-aAPC; assay: drug sensitivity score (DSS) (DSS units); higher = more sensitive; extreme values may be limits of the assay; settings: 72 h; IL-2 2.5 ng/mL
Protocol: as §1

CCc1cc2c(cc1N1CCC(N3CCOCC3)CC1)C(C)(C)c1[nH]c3cc(C#N)ccc3c1C2=O [Alectinib] (max concentration tested 1000 nM)
Settings	drug sensitivity score
DERL-7 (IL-2 2.5 ng/mL) [7]	0.02
IMC-1 (IL-2 20 ng/mL) [2]	0
KAI3 (IL-2 2.5 ng/mL) [11]	0
KHYG-1 (IL-2 2.5 ng/mL) [4]	0.86
NK-92 (IL-2 2.5 ng/mL) [5]	2.08
NK-YS (IL-2 2.5 ng/mL) [1]	1.14
NKL (IL-2 2.5 ng/mL) [12]	0.33
SNK-6 (IL-2 2.5 ng/mL) [9]	0
YT (IL-2 2.5 ng/mL) [13]	0
[3]	0
[6]	0
[8]	0
[10]	0.17
[28]	0

percent inhibition of viability [%]
Settings	0.1 nM	1 nM	10 nM	100 nM	1000 nM
DERL-7 (IL-2 2.5 ng/mL) [20]	-1.51	-2.79	-1.59	-8.82	13
IMC-1 (IL-2 20 ng/mL) [15]	-2.94	1.06	-2.15	-2.79	-0.64
KAI3 (IL-2 2.5 ng/mL) [24]	-3.74	3.89	3.63	1.36	-4
KHYG-1 (IL-2 2.5 ng/mL) [17]	-3.94	0.6	-1.88	10.3	14.5
NK-92 (IL-2 2.5 ng/mL) [18]	-7.49	-8.89	-12	9.46	24.4
NK-YS (IL-2 2.5 ng/mL) [14]	-5.67	-3.61	-7.75	6.14	18.4
NKL (IL-2 2.5 ng/mL) [25]	-9	-7.92	-11.6	-10.4	20.1
SNK-6 (IL-2 2.5 ng/mL) [22]	-2.43	-0.7	-18.9	-29	-2.44
YT (IL-2 2.5 ng/mL) [26]	-3.8	-4.08	-6.26	0.11	2.48
[16]	-8.17	-9.65	-5.32	-8.21	-0.39
[19]	-1.7	-9.82	-10.4	-1.45	0.6
[21]	-3.03	-7.68	-3.35	-8.46	3.39
[23]	-6.37	-4.08	-8.77	1.83	12.5
[27]	0.14	-2.95	-2.33	-2.36	4.52

C[C@@]1(C(=O)Nc2ccc(F)nc2)CCCN1c1nc(Nc2cc(C3CC3)n[nH]2)c2cccn2n1 (max concentration tested 10000 nM)
Settings	drug sensitivity score
DERL-7 (IL-2 2.5 ng/mL) [7]	13.9
IMC-1 (IL-2 20 ng/mL) [2]	4.66
KAI3 (IL-2 2.5 ng/mL) [11]	4.58
KHYG-1 (IL-2 2.5 ng/mL) [4]	7.7
NK-92 (IL-2 2.5 ng/mL) [5]	7.43
NK-YS (IL-2 2.5 ng/mL) [1]	12.7
NKL (IL-2 2.5 ng/mL) [12]	0
SNK-6 (IL-2 2.5 ng/mL) [9]	10.8
YT (IL-2 2.5 ng/mL) [13]	5.62
[3]	0
[6]	0.16
[8]	0
[10]	2.52
[28]	7.77

percent inhibition of viability [%]
Settings	1 nM	10 nM	100 nM	1000 nM	10000 nM
DERL-7 (IL-2 2.5 ng/mL) [20]	-1.6	5.82	2.68	74.3	60.1
IMC-1 (IL-2 20 ng/mL) [15]	1.89	-6.3	0.07	3.22	76.3
KAI3 (IL-2 2.5 ng/mL) [24]	-1.42	-2.58	4.51	22.4	41.7
KHYG-1 (IL-2 2.5 ng/mL) [17]	-3.05	-5.44	1.8	30.1	70.8
NK-92 (IL-2 2.5 ng/mL) [18]	1.84	11	7.85	33.8	57.6
NK-YS (IL-2 2.5 ng/mL) [14]	-3.69	-4.66	4.73	65.5	77.1
NKL (IL-2 2.5 ng/mL) [25]	-16.6	-4.3	-14.1	1.87	-5.96
SNK-6 (IL-2 2.5 ng/mL) [22]	2.3	-11.9	-15.8	57.8	74.8
YT (IL-2 2.5 ng/mL) [26]	3.08	1.72	7.96	25	51.8
[16]	-3.23	-1.9	0.53	7.47	-2.1
[19]	-6.95	-10	3.68	2.67	12.4
[21]	-2.95	-4.83	-5.48	-1.42	10.7
[23]	-9	-4.43	15.4	-2.47	51.6
[27]	-9.12	-3.4	-6.53	45.5	42.2

CC(C)(O)CC(=O)NCCn1ccc2ncnc(Nc3ccc(Oc4cccc(C(F)(F)F)c4)c(Cl)c3)c21 [TAK-285] (max concentration tested 2500 nM)
Settings	drug sensitivity score
DERL-7 (IL-2 2.5 ng/mL) [7]	0
IMC-1 (IL-2 20 ng/mL) [2]	0.89
KAI3 (IL-2 2.5 ng/mL) [11]	0
KHYG-1 (IL-2 2.5 ng/mL) [4]	0
NK-92 (IL-2 2.5 ng/mL) [5]	0.37
NK-YS (IL-2 2.5 ng/mL) [1]	0
NKL (IL-2 2.5 ng/mL) [12]	0.89
SNK-6 (IL-2 2.5 ng/mL) [9]	0
YT (IL-2 2.5 ng/mL) [13]	0
[3]	0.89
[6]	0
[8]	0.89
[10]	0.01
[28]	0.89

percent inhibition of viability [%]
Settings	0.25 nM	2.5 nM	25 nM	250 nM	2500 nM
DERL-7 (IL-2 2.5 ng/mL) [20]	0.57	-0.5	-0.21	-6.99	3.24
IMC-1 (IL-2 20 ng/mL) [15]	-2.98	-2.02	-5.78	-4.36	-2.28
KAI3 (IL-2 2.5 ng/mL) [24]	3.24	6.26	-7.58	2.41	-4.47
KHYG-1 (IL-2 2.5 ng/mL) [17]	-0.17	-1.01	-1.95	2.13	-6.23
NK-92 (IL-2 2.5 ng/mL) [18]	3.91	-1.52	-0.33	10.9	11.6
NK-YS (IL-2 2.5 ng/mL) [14]	-1.3	-5.16	-2.82	0.41	-0.02
NKL (IL-2 2.5 ng/mL) [25]	-13.2	-11.7	-12.7	-16.1	-29.3
SNK-6 (IL-2 2.5 ng/mL) [22]	5.49	3.7	-2.84	-9.96	-12.5
YT (IL-2 2.5 ng/mL) [26]	0.86	-3.2	0.37	1.42	-3.68
[16]	-5.51	-2.63	-4.05	-8.03	-14.8
[19]	-5.45	-7.93	-3.5	-0.56	2.32
[21]	-6.38	-6.44	-5.09	-7.05	-6.29
[23]	-19.2	-12	10	5.74	6.13
[27]	-3.9	-5.59	-4.49	-4.65	-10.5
